Reference: patent publication US20030207932A1, “Compositions that prevent post-traumatic hyperpigmentation and methods related thereto” (priority 2002, published 2003)

Tested on: patients with a strong genetic predisposition to post traumatic hyperpigmentation
Experiment: Proof of concept in patients predisposed to post traumatic hyperpigmentation
Format: in vivo, human
Conditions: five subjects; oral zafirlukast alone, 20 mg two times daily, two weeks prior and thereafter for two months
Procedure: The patients were known to have this predisposition because prior trauma pigmented areas. Five of the subjects were given the oral composition zafirlukast, two weeks prior and thereafter for two months. The dosage was 20 mg two time daily. The other five individuals were give the same medication that the same dosage for the same amount of time, but in addition, were also given a topical preparation.
Five further patients were then selected with obvious genetic predisposition to post traumatic hyperpigmentation. They were given only the topical composition after their surgical procedure. The topical composition was applied three times daily for two months after the procedure. […] This was completely unexpected. The topical composition, as administered, is described in Table 1 below.

## COc1cc(C(=O)NS(=O)(=O)c2ccccc2C)ccc1Cc1cn(C)c2ccc(NC(=O)OC3CCCC3)cc12 [zafirlukast]
  development of hyperpigmentation: In no case did hyperpigmentation develop
